For this assay, the target named is T1, human SLO3 (Homo sapiens, UniProt A8MYU2).
T1 construct: expressed in transfected cells
T1 sequence (A8MYU2 1-1149): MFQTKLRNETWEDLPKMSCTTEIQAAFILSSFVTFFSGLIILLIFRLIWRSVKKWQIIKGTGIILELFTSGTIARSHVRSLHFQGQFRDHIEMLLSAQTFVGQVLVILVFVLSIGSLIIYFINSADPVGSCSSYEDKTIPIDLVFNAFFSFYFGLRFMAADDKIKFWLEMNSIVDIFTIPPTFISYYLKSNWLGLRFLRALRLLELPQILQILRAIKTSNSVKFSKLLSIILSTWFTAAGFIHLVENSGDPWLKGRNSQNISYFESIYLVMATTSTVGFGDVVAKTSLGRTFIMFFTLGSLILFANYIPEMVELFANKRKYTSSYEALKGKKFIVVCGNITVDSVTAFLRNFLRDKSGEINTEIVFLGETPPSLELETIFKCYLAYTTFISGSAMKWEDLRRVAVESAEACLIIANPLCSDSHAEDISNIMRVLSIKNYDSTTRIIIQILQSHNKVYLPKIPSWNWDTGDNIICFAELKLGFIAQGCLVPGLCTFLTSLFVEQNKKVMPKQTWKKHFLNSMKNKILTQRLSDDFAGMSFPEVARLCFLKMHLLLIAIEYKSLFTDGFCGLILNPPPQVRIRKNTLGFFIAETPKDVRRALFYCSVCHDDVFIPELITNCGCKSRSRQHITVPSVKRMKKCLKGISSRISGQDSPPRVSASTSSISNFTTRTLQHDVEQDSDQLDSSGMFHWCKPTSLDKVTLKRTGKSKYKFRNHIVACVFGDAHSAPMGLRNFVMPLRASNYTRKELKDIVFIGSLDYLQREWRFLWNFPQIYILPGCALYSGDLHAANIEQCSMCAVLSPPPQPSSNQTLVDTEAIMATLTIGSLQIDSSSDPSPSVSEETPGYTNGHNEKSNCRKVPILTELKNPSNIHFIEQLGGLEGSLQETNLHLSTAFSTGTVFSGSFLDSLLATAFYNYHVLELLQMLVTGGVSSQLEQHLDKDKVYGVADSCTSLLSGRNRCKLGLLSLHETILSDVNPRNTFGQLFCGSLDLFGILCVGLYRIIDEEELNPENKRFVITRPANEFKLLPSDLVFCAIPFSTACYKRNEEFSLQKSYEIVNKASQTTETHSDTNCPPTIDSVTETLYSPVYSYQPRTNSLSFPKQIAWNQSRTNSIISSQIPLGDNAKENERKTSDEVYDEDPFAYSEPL
T1 sequence (Q8N7C0 24-313 partner): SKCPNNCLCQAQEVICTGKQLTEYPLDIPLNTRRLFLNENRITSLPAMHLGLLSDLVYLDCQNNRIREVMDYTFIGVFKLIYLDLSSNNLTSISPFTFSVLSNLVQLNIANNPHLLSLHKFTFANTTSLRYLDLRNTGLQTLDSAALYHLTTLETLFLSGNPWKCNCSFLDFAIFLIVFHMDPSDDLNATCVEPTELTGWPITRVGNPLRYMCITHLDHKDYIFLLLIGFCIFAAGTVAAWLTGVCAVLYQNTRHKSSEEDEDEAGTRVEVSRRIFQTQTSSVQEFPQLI
Description: SLO3 patch-clamp electrophysiology, human SLO3-γ2 expressed in HEK293 cells. It counts as cell-based. Conditions: for inhibition at 10 µM: HEK293, read-out: HEK hSLO3 % of inhib. at 10 μM; for IC50: transfected HEK293 cells (human SLO3-γ2), whole-cell patch clamp, currents at +100 mV, read-out: hSLO3 IC50. The method, then:
HEK293 cells were transfected with the bicistronic vector pBUD-CE4.1 containing the genes of interest and a gene conferring antibiotic resistance. Cells were exposed to gradients of selection antibiotics, and optimal growth conditions for the stable lines were as follows: SLO3 and γ2 (SLO3-γ2) supplemented with 700 μg/mL Zeocin (Invitrogen); human SLO1 and β1 (SLO1-β1) with 1 mg/mL G418 (Sigma) and 3 μg/mL puromycin (Corning, Thermo Fisher); and human SLO1 and β4 (SLO1-β4) with 250 μg/mL Zeocin and 3 μg/mL puromycin. All cell lines were grown in Dulbecco’s Modified Eagle Medium (Gibco, Thermo Fisher) supplemented with 10% fetal bovine serum, 1% penicillin–streptomycin (Millipore Sigma), and selection antibiotics. To generate cells expressing SLO1 and γ2, stable SLO1-expressing HEK293 cells were transiently transfected with expression vectors for γ2 and green fluorescent protein (GFP) in the presence of lipofectamine (Invitrogen) for 5 h.
The cells were then washed and incubated in supplemented Dulbecco’s Modified Eagle Medium for 48 h before use. Patch-clamp electrophysiology was performed only on cells expressing GFP.
Currents in HEK293 cells were measured in the whole-cell patch-clamp configuration with an Axopatch 200B amplifier, digitized with a Digidata 1440A, and interfaced with Clampex 10.6.0.13 (Molecular Devices). […] An isolated cell was located on an Axiovert 200 microscope (Zeiss), and a gigaohm seal was formed with a borosilicate pipette with resistance between 3 and 6 MΩ and filled with internal solution (140 mM KMeSO3, 10 mM HEPES, 10 mM MES, 1 mM EGTA, pH 7). The seal was then broken by applying a negative pressure. Cells were kept at a holding potential of −60 mV for 50 ms, tested with a stepped voltage protocol from −80 to +150 mV in 10 mV increments for 100 ms, and then dropped to −40 mV for 50 ms with 2.5 s between sweeps. This protocol was used to record currents present with increasing concentration of our compound of interest or 3 μL/mL vehicle (DMSO) in the bath solution. Individual cells were tested with between 1 and 5 concentrations of the compound of interest or until the patch was lost. Currents were allowed to stabilize before the initial recording and after the perfusion solution was changed before recording.
Data were analyzed with a pClamp 10.6 (Molecular Devices). VU6047606 and VU6032735 inhibition dose–response relationships were fit by the Hill equation in OriginPro 7.5 (OriginLab Corporation): R=1/1+(C/IC50)^n+Ioff , in which R is fractional unblock, C is compound concentration, IC50 is the half inhibition concentration, n is the Hill coefficient, and I off is an offset item for leak current. Error bars in the figures represent the SDs. Each data point is averaged from at least 5 measurements. Curve-fitting results are reported as the fitted values with standard error, which was estimated by OriginPro according to the Error Propagation formula.
Background: Patch clamp records ionic current or voltage across a cell membrane.

Our source for the inhibition and IC50 values is publication PMC12441834, “Highly Potent and Subtype-Selective Sperm-Specific Potassium Channel SLO3 Inhibitors Display High Tissue Exposure in the Murine Female Reproductive Tract” (ACS Pharmacology & Translational Science, 2025).

The structures appear in SMILES notation.

As a reminder, the IC50 is the concentration at which inhibition is half-maximal. In the case of `O=C(c1ccc(OCc2ccc(OC(F)(F)F)cc2)cc1)N1CCN(c2ccc(C(F)(F)F)cn2)CC1` [VU6032735], the inhibition at 10 µM was found to be 100% and the IC50 stood at 165 nM. For the compound `Cc1cc(Cl)cc2sc(OC3CCN(C(=O)CCCS(=O)(=O)c4cccc(Br)c4)CC3F)nc12` (centres unmarked) [VU6045330], the IC50 was determined as 135 nM.

With `Cc1cc(Cl)cc2sc(O[C@H]3CCN(C(=O)CCCS(=O)(=O)c4cccc(Br)c4)C[C@H]3F)nc12` [VU6047606], the inhibition at 10 µM was 100% and the concentration for half-maximal inhibition (IC50) is 43 nM. Turning to `Cc1cc(Cl)cc2sc(O[C@@H]3CCN(C(=O)CCCS(=O)(=O)c4cccc(Br)c4)C[C@H]3F)nc12` [VU6047607], the IC50 turned out to be 457 nM. Still for that read-out and setting: the figure for `Cc1cc(Cl)cc2sc(O[C@@H]3CCN(C(=O)CCCS(=O)(=O)c4cccc(Br)c4)C[C@@H]3F)nc12` [VU6047608] is 583 nM.

In the case of `Cc1cc(Cl)cc2sc(O[C@H]3CCN(C(=O)CCCS(=O)(=O)c4cccc(Br)c4)C[C@@H]3F)nc12` [VU6047609], the IC50 is 112 nM.
